Assay results as given in US11382328B2, “Rapid drug discovery methods for pathogen inactivation” (priority 2019, dated 2022).

Test system: E. coli strain W3110
Assay: Synergy assays: Biolog chemical sensitivity panels with Group IB metal, coefficient of drug interaction (CDI) from relative growth
Type: cell-based
Conditions: for CDI (coefficient of drug interaction), copper mixed with biocide: Copper (mM) section
[1] = 1st of 3 copper concentrations (value not shown), 1st of four biocide concentrations
[2] = 1st of 3 copper concentrations (value not shown), 3rd of four biocide concentrations
[3] = 1st of 3 copper concentrations (value not shown), 4th of four biocide concentrations
[4] = 2nd of 3 copper concentrations (value not shown), 1st of four biocide concentrations
[5] = 2nd of 3 copper concentrations (value not shown), 2nd of four biocide concentrations
[6] = 2nd of 3 copper concentrations (value not shown), 3rd of four biocide concentrations
[7] = 2nd of 3 copper concentrations (value not shown), 4th of four biocide concentrations
[8] = 3rd of 3 copper concentrations (value not shown), 1st of four biocide concentrations
[9] = 3rd of 3 copper concentrations (value not shown), 2nd of four biocide concentrations
[10] = 3rd of 3 copper concentrations (value not shown), 3rd of four biocide concentrations
[11] = 3rd of 3 copper concentrations (value not shown), 4th of four biocide concentrations
[12] = Gold section of Table 5, first of three gold concentrations (μM, value not given), biocide concentration 2 of 4
[13] = Gold section of Table 5, first of three gold concentrations (μM, value not given), biocide concentration 4 of 4
[14] = Gold section of Table 5, second of three gold concentrations (μM, value not given), biocide concentration 2 of 4
[15] = Gold section of Table 5, second of three gold concentrations (μM, value not given), biocide concentration 3 of 4
[16] = Gold section of Table 5, second of three gold concentrations (μM, value not given), biocide concentration 4 of 4
[17] = Gold section of Table 5, third of three gold concentrations (μM, value not given), biocide concentration 1 of 4
[18] = Gold section of Table 5, third of three gold concentrations (μM, value not given), biocide concentration 2 of 4
[19] = Gold section of Table 5, third of three gold concentrations (μM, value not given), biocide concentration 3 of 4
[20] = Gold section of Table 5, third of three gold concentrations (μM, value not given), biocide concentration 4 of 4
[21] = Silver 0.5 μM, 2nd of four biocide concentrations, E. coli
[22] = Silver 0.5 μM, 3rd of four biocide concentrations, E. coli
[23] = Silver 0.5 μM, 4th of four biocide concentrations, E. coli
[24] = Silver 1.0 μM, 2nd of four biocide concentrations, E. coli
[25] = Silver 1.0 μM, 3rd of four biocide concentrations, E. coli
[26] = Silver 1.0 μM, 4th of four biocide concentrations, E. coli
[27] = Silver 5.0 μM, 2nd of four biocide concentrations, E. coli
[28] = Silver 5.0 μM, 3rd of four biocide concentrations, E. coli
[29] = Silver 5.0 μM, 4th of four biocide concentrations, E. coli
[30] = Gold section of Table 5, first of three gold concentrations (μM, value not given), biocide concentration 3 of 4
[31] = Silver 0.5 μM, biocide concentration 3 of 4
[32] = Silver 0.5 μM, biocide concentration 4 of 4
[33] = Silver 1.0 μM, biocide concentration 3 of 4
[34] = Silver 1.0 μM, biocide concentration 4 of 4
[35] = Silver 5.0 μM, biocide concentration 3 of 4
[36] = Silver 5.0 μM, biocide concentration 4 of 4

Compound: phleomycin
- CDI (coefficient of drug interaction), copper mixed with biocide [1]: 0.99
- CDI (coefficient of drug interaction), copper mixed with biocide (1st of 3 copper concentrations (value not shown), 2nd of four biocide concentrations): 1.27
- CDI (coefficient of drug interaction), copper mixed with biocide [2]: Tox
- CDI (coefficient of drug interaction), copper mixed with biocide [3]: Tox
- CDI (coefficient of drug interaction), copper mixed with biocide [4]: 1.09
- CDI (coefficient of drug interaction), copper mixed with biocide [5]: 1.19
- CDI (coefficient of drug interaction), copper mixed with biocide [6]: Tox
- CDI (coefficient of drug interaction), copper mixed with biocide [7]: Tox
- CDI (coefficient of drug interaction), copper mixed with biocide [8]: 0.99
- CDI (coefficient of drug interaction), copper mixed with biocide [9]: 0.96
- CDI (coefficient of drug interaction), copper mixed with biocide [10]: Tox
- CDI (coefficient of drug interaction), copper mixed with biocide [11]: Tox
- CDI (coefficient of drug interaction) (Gold section of Table 5, first of three gold concentrations (μM, value not given), biocide concentration 1 of 4): 0.98
- CDI (coefficient of drug interaction) [12]: 1.06
- CDI (coefficient of drug interaction) [13]: 1.33
- CDI (coefficient of drug interaction) [14]: 1.03
- CDI (coefficient of drug interaction) [15]: 0.88
- CDI (coefficient of drug interaction) [16]: 0.87
- CDI (coefficient of drug interaction) [17]: 0.99
- CDI (coefficient of drug interaction) [18]: 0.96
- CDI (coefficient of drug interaction) [19]: 0.92
- CDI (coefficient of drug interaction) [20]: 1.29
- CDI (coefficient of drug interaction), silver + biocide (Silver 0.5 μM, 1st of four biocide concentrations, E. coli): 0.81
- CDI (coefficient of drug interaction), silver + biocide [21]: 0.61
- CDI (coefficient of drug interaction), silver + biocide [22]: 0.68
- CDI (coefficient of drug interaction), silver + biocide [23]: Tox
- CDI (coefficient of drug interaction), silver + biocide (Silver 1.0 μM, 1st of four biocide concentrations, E. coli): 0.89
- CDI (coefficient of drug interaction), silver + biocide [24]: 0.81
- CDI (coefficient of drug interaction), silver + biocide [25]: 0.81
- CDI (coefficient of drug interaction), silver + biocide [26]: Tox
- CDI (coefficient of drug interaction), silver + biocide (Silver 5.0 μM, 1st of four biocide concentrations, E. coli): 1.32
- CDI (coefficient of drug interaction), silver + biocide [27]: 1.43
- CDI (coefficient of drug interaction), silver + biocide [28]: 1.37
- CDI (coefficient of drug interaction), silver + biocide [29]: Tox

Compound: OC(CCN1CCCCC1)(c1ccccc1)c1ccccc1 [pridinol]
- CDI (coefficient of drug interaction), copper mixed with biocide [3]: Tox
- CDI (coefficient of drug interaction), copper mixed with biocide [7]: Tox
- CDI (coefficient of drug interaction), copper mixed with biocide [11]: Tox
- CDI (coefficient of drug interaction) [13]: Tox
- CDI (coefficient of drug interaction) [15]: Tox
- CDI (coefficient of drug interaction) [16]: Tox
- CDI (coefficient of drug interaction) [19]: Tox
- CDI (coefficient of drug interaction) [20]: Tox
- CDI (coefficient of drug interaction), silver + biocide [21]: Tox
- CDI (coefficient of drug interaction), silver + biocide [23]: Tox
- CDI (coefficient of drug interaction), silver + biocide [24]: Tox
- CDI (coefficient of drug interaction), silver + biocide [26]: Tox
- CDI (coefficient of drug interaction), silver + biocide [27]: Tox
- CDI (coefficient of drug interaction), silver + biocide [29]: Tox

Compound: c1cnc2c(c1)ccc1cccnc12 [1,10-phenanthroline]
- CDI (Copper 0.1 mM, biocide concentration 3 of 4): Tox
- CDI (Copper 0.1 mM, biocide concentration 4 of 4): Tox
- CDI (Copper 0.5 mM, biocide concentration 3 of 4): Tox
- CDI (Copper 0.5 mM, biocide concentration 4 of 4): Tox
- CDI (Copper 1.0 mM, biocide concentration 3 of 4): Tox
- CDI (Copper 1.0 mM, biocide concentration 4 of 4): Tox
- CDI (coefficient of drug interaction) (Gold 5 μM, biocide concentration 4 of 4, E. coli): Tox
- CDI (coefficient of drug interaction) (Gold 25 μM, biocide concentration 4 of 4, E. coli): Tox
- CDI (coefficient of drug interaction) (Gold 50 μM, biocide concentration 4 of 4, E. coli): Tox
- CDI (coefficient of drug interaction), silver + biocide [22]: Tox
- CDI (coefficient of drug interaction), silver + biocide [23]: Tox
- CDI (coefficient of drug interaction), silver + biocide [25]: Tox
- CDI (coefficient of drug interaction), silver + biocide [26]: Tox
- CDI (coefficient of drug interaction), silver + biocide [28]: Tox
- CDI (coefficient of drug interaction), silver + biocide [29]: Tox

Compound: Nc1n[nH]c(N)n1 [guanazole]
- CDI (coefficient of drug interaction), copper mixed with biocide [2]: Tox
- CDI (coefficient of drug interaction), copper mixed with biocide [3]: Tox
- CDI (coefficient of drug interaction), copper mixed with biocide [6]: Tox
- CDI (coefficient of drug interaction), copper mixed with biocide [7]: Tox
- CDI (coefficient of drug interaction), copper mixed with biocide [10]: Tox
- CDI (coefficient of drug interaction), copper mixed with biocide [11]: Tox
- CDI (coefficient of drug interaction) [30]: Tox
- CDI (coefficient of drug interaction) [13]: Tox
- CDI (coefficient of drug interaction) [15]: Tox
- CDI (coefficient of drug interaction) [16]: Tox
- CDI (coefficient of drug interaction) [19]: Tox
- CDI (coefficient of drug interaction) [20]: Tox
- CDI [31]: Tox
- CDI [32]: Tox
- CDI [33]: Tox
- CDI [34]: Tox
- CDI [35]: Tox
- CDI [36]: Tox

Compound: Cc1ccc2c(Cl)cc(Cl)c(O)c2n1 [5,7-dichloro-8-hydroxyquinaldine]
- CDI (coefficient of drug interaction), silver + biocide [23]: Tox
- CDI (coefficient of drug interaction), silver + biocide [26]: Tox
- CDI (coefficient of drug interaction), silver + biocide [29]: Tox

Compound: O=C(O)c1ccccc1S [thiosalicylic acid]
- CDI (coefficient of drug interaction), silver + biocide [23]: Tox
- CDI (coefficient of drug interaction), silver + biocide [26]: Tox
- CDI (coefficient of drug interaction), silver + biocide [29]: Tox

Compound: CN[C@H]1C[C@@H](N)[C@H](O)[C@@H](O[C@@H]2O[C@H](CO)[C@H](O)[C@@H]3OC4(O[C@H]23)O[C@H]([C@@H](N)CO)[C@H](O)[C@H](O)[C@H]4O)[C@@H]1O (stereo partly shown) [hygromycin B]
- CDI (coefficient of drug interaction), copper mixed with biocide [1]: 1.19
- CDI (coefficient of drug interaction), copper mixed with biocide [2]: 0.89
- CDI (coefficient of drug interaction), copper mixed with biocide [3]: 0.61
- CDI (coefficient of drug interaction), copper mixed with biocide [4]: 0.80
- CDI (coefficient of drug interaction), copper mixed with biocide [5]: 0.81
- CDI (coefficient of drug interaction), copper mixed with biocide [6]: 1.02
- CDI (coefficient of drug interaction), copper mixed with biocide [7]: Tox
- CDI (coefficient of drug interaction), copper mixed with biocide [8]: 0.91
- CDI (coefficient of drug interaction), copper mixed with biocide [9]: 0.79
- CDI (coefficient of drug interaction), copper mixed with biocide [10]: 0.77
- CDI (coefficient of drug interaction), copper mixed with biocide [11]: 0.94
- CDI (coefficient of drug interaction) [12]: 0.82
- CDI (coefficient of drug interaction) [30]: Tox
- CDI (coefficient of drug interaction) [13]: Tox
- CDI (coefficient of drug interaction) (Gold section of Table 5, second of three gold concentrations (μM, value not given), biocide concentration 1 of 4): 0.96
- CDI (coefficient of drug interaction) [14]: 1.13
- CDI (coefficient of drug interaction) [15]: Tox
- CDI (coefficient of drug interaction) [16]: Tox
- CDI (coefficient of drug interaction) [17]: 0.97
- CDI (coefficient of drug interaction) [18]: 1.27
- CDI (coefficient of drug interaction) [19]: Tox
- CDI (coefficient of drug interaction) [20]: Tox
- CDI (Silver 0.5 μM, biocide concentration 1 of 4): 1.26
- CDI (Silver 0.5 μM, biocide concentration 2 of 4): 2.06
- CDI [31]: Tox
- CDI [32]: Tox
- CDI (Silver 1.0 μM, biocide concentration 1 of 4): 0.63
- CDI (Silver 1.0 μM, biocide concentration 2 of 4): 1.47
- CDI [33]: Tox
- CDI [34]: Tox
- CDI (Silver 5.0 μM, biocide concentration 1 of 4): 0.03
- CDI (Silver 5.0 μM, biocide concentration 2 of 4): 0.37
- CDI [35]: Tox
- CDI [36]: Tox
